Reference: patent US9844226B2 (AJINOMOTO CO., INC., priority 2009, dated 2017)
“And” between values parts separate entries of the source, which are not always exact repeats. Equal entries are not always repeated. “Also recorded” adds a separate entry of the source. Starred links: 1 amine or outer side, 2 acyl side, 3 side chain; linkers in the order of their positions; H or OH if unused. Non-standard residues stand in square brackets, D forms with d. No end group written: not given here. γGlu = O=C(O)[C@H](CCC(=O)[*:2])N[*:1]

Columns and labels:
Type in all cases: in vivo, human
panelists [1] = test: Quantitative sensory evaluation test of kokumi-imparting activity; details: for Strength of Kokumi Impartment, Initial Taste / Strength of Kokumi Impartment, Middle/After Taste: scale -5~0~5, n=4; for Kokumi-imparting strength compared with γ-Glu-Val (in words): in vivo
Method: This quantitative sensory evaluation test was carried out as follows: The strength of the kokumi-imparting activity was measured for the cases where the test compound was mixed at concentrations of 0.001 to 0.5 g/dL with distilled water containing sodium glutamate (0.05 g/dL), inosine monophosphate (0.05 g/dL), and sodium chloride (0.5 g/dL). After the test compound was dissolved, samples more acidic than a control with no added test compound were adjusted, before further use, with NaOH to have a pH in a range of ±0.2 from the pH of the control with no added test compound. The sensory evaluation scores were as follows: control: 0 points; strong: 3 points; very strong: 5 points. The sensory evaluation was carried out using n (the number of panelists)=4. Moreover, to clarify the scale, the initial taste and the middle/after taste of γ-[…] at 0.001 g/dL were both set as 3.0 points. The term “middle/after taste” refers to the taste perceived during the period which includes the middle taste and the after taste. For the scoring, a linear scale method was employed. In this method, the score was marked as a position on a straight line showing positions for scores ranging from -5 0 5.

panelists [2] = test: Strength of kokumi-imparting activity by Point of Subjective Equality (PSE), limit-determining technique
Method: The intensity of the kokumi-imparting activity of γ-Glu-Abu was determined by Point of Subjective Equality (PSE) according to the limit-determining technique (“Statistical Sensory Examination techniques”, written by SATO Shin, published by Japan Federation of Science and Technology). The sensory evaluation was carried out as follows: Distilled water containing sodium glutamate (0.05 g/dL), inosine monophosphate (0.05 g/dL) and sodium chloride (0.5 g/dL) was used as the solution for the sensory evaluation. […] To determine the concentration of γ-Glu-Val at which the strength of taste is the same as that of a solution obtained by causing the solution for the sensory evaluation to contain 0.005 g/dL of γ-[…] solutions were prepared with a concentration that varied on a 50% logarithmic scale by using a solution obtained by causing the solution for the sensory evaluation, to contain 0.01 g/dL of γ-Glu-Val as a standard. The concentrations of γ-Glu-Val was set to 7 values ranging from 0.0030 to 0.0337 g/dL. After the test substance was dissolved, samples more acidic than the control with no added test substance were adjusted, before further use, with NaOH to have a pH in a range of ±0.2 as compared to the pH of the control with no added test substance. The solutions were presented to eighteen panelists in ascending order of the γ-Glu-Val concentration. The evaluation was carried out until each panelist perceived that the strength was higher than that of the 0.005 g/dL γ-Glu-Abu solution. After a certain interval, the solutions were next presented to the eighteen panelists in descending order of the γ-Glu-Val concentration. The evaluation was carried out until each panelist perceived that the strength was lower than that of the 0.005 g/dL γ-Glu-Abu solution. In this sensory evaluation, the panelists were experienced in the development of food products. When the lower and upper threshold values were the same, there was no γ-Glu-Val concentration at which the difference between the perception that the strength was lower, and the perception that the strength was higher, was uncertain. […] Each confidence threshold (average) is an average of the lower thresholds and the upper thresholds. The point of subjective equality (PSE) of γ-Glu-Val to 50 ppm (0.0050 g/dL) of γ-Glu-Abu is expressed as follows: (the sum of the confidence threshold of the lower thresholds and that of the upper threshold value)/2.

panelists [3] = test: Quantitative sensory evaluation test of salty taste enhancement
Method: After the test compound was dissolved, samples more acidic than a control containing no added test compound were adjusted, before further use, with NaOH to have a pH in a range of ±0.2 from the pH of the control to which no test compound was added.
The sensory evaluation scores were as follows, the control to which no test compound was added, i.e. a 0.5 g/dL sodium chloride solution: 0 points; a 0.75 g/dL sodium chloride solution: 5 points. The sensory evaluation was conducted on a scale ranging from −5 to 0 to 5, with n=5. The “initial taste” refers to the taste perceived by each panelist from the start of eating the sample to 2 seconds thereafter, while the term “middle/after taste” refers to that perceived by each panelist from 2 seconds on and after eating the same, i.e. perceived during the period including both the middle taste and the after taste. For the scoring, a linear scale method was used. In this method, the score was marked as a position on a straight line showing positions for scores ranging from −5˜0˜5. The panelists were persons who were engaged in the development of seasonings for foods for one year or longer in total, and who were capable of determining that the difference in the potency between γ-Glu-Cys-Gly and γ-Glu-Val-Gly each added to a umami taste and salty taste solution was around 10 times, while confirming the ability of these persons at regular intervals.

[4] = 0.01 g/dL in water with MSG 0.05, IMP 0.05, NaCl 0.5 g/dL
[5] = 0.2 g/dL in water with MSG 0.05, IMP 0.05, NaCl 0.5 g/dL
[6] = γ-Glu-Val vs 50 ppm γ-Glu-Abu, individual panelists (Nos. 1-18), ascending order of presentation
[7] = γ-Glu-Val vs 50 ppm γ-Glu-Abu, individual panelists (Nos. 19-36), descending order of presentation
[8] = 0.002 g/dL in 0.5 g/dL NaCl, 0.5 g/dL NaCl = 0, 0.75 g/dL NaCl = 5, n=5

## N[C@@H](CCC(=O)N[C@@H](CS)C(=O)O)C(=O)O [γ-Glu-Cys, γ-L-Glu-L-Cys]
Panelists [1]; [4]
  Strength of Kokumi Impartment, Initial Taste: 3.1 points
  Strength of Kokumi Impartment, Middle/After Taste: 3.1 points
Panelists [1]
  Kokumi-imparting strength compared with γ-Glu-Val (in words): strong effect approximately the same as that of γ-Glu-Val

## N[C@@H](CCC(=O)N[C@@H](CO)C(=O)O)C(=O)O [γ-Glu-Ser, γ-L-Glu-L-Ser]
Panelists [1]; [5]
  Strength of Kokumi Impartment, Initial Taste: 3.6 points
  Strength of Kokumi Impartment, Middle/After Taste: 3.0 points
Panelists [1]
  Kokumi-imparting strength compared with γ-Glu-Val (in words): lower strength than γ-Glu-Val

## C[C@H](NC(=O)CC[C@H](N)C(=O)O)C(=O)O [γ-Glu-Ala, γ-L-Glu-L-Ala]
Panelists [1]; [5]
  Strength of Kokumi Impartment, Initial Taste: 4.5 points
  Strength of Kokumi Impartment, Middle/After Taste: 4.3 points
Panelists [1]
  Kokumi-imparting strength compared with γ-Glu-Val (in words): lower strength than γ-Glu-Val

## CC(C)[C@H](NC(=O)CC[C@H](N)C(=O)O)C(=O)O [γ-Glu-Val, γ-L-Glu-L-Val]
Panelists [1]; 0.01 g/dL
  Sensory Evaluation Profile (kokumi): The after taste was extremely weak.
Panelists [1]; [4]
  Strength of Kokumi Impartment, Initial Taste: 3.1 points
  Strength of Kokumi Impartment, Middle/After Taste: 2.4 points
Panelists [2]; (lower + upper confidence threshold)/2
  PSE (point of subjective equality) of γ-Glu-Val to 50 ppm γ-Glu-Abu: 121.9 ppm
Panelists [2]; estimated from Table 4
  γ-Glu-Val concentration (PSE) with the same strength as 0.0050 g/dL γ-Glu-Abu, estimated from number of panelists (Table 4): 0.0100 g/dL
Panelists [2]; vs 0.0050 g/dL γ-Glu-Abu
  PSE calculated from upper and lower threshold concentrations of γ-Glu-Val: 0.0122 g/dL
Panelists [2]; γ-Glu-Val 0.0030 g/dL
  No. of Panelists whose evaluation was such that the difference between γ-Glu-Val and γ-Glu-Abu (0.0050 g/dL) was uncertain: 0 No. of panelists
  No. of Panelists whose evaluation was such that γ-Glu-Val was weaker than γ-Glu-Abu (0.0050 g/dL): 36 No. of panelists
Panelists [2]; γ-Glu-Val 0.0030 g/dL, 18 panelists, ascending and descending
  No. of Panelists whose evaluation was such that γ-Glu-Val was stronger than γ-Glu-Abu (0.0050 g/dL): 0 No. of panelists
Panelists [2]; γ-Glu-Val 0.0044 g/dL
  No. of Panelists whose evaluation was such that the difference between γ-Glu-Val and γ-Glu-Abu (0.0050 g/dL) was uncertain: 0 No. of panelists
  No. of Panelists whose evaluation was such that γ-Glu-Val was stronger than γ-Glu-Abu (0.0050 g/dL): 1 No. of panelists
  No. of Panelists whose evaluation was such that γ-Glu-Val was weaker than γ-Glu-Abu (0.0050 g/dL): 35 No. of panelists
Panelists [2]; γ-Glu-Val 0.0067 g/dL
  No. of Panelists whose evaluation was such that the difference between γ-Glu-Val and γ-Glu-Abu (0.0050 g/dL) was uncertain: 13 No. of panelists
  No. of Panelists whose evaluation was such that γ-Glu-Val was stronger than γ-Glu-Abu (0.0050 g/dL): 3 No. of panelists
  No. of Panelists whose evaluation was such that γ-Glu-Val was weaker than γ-Glu-Abu (0.0050 g/dL): 20 No. of panelists
Panelists [2]; γ-Glu-Val 0.0100 g/dL
  No. of Panelists whose evaluation was such that the difference between γ-Glu-Val and γ-Glu-Abu (0.0050 g/dL) was uncertain: 13 No. of panelists
  No. of Panelists whose evaluation was such that γ-Glu-Val was stronger than γ-Glu-Abu (0.0050 g/dL): 11 No. of panelists
  No. of Panelists whose evaluation was such that γ-Glu-Val was weaker than γ-Glu-Abu (0.0050 g/dL): 12 No. of panelists
Panelists [2]; γ-Glu-Val 0.0150 g/dL
  No. of Panelists whose evaluation was such that the difference between γ-Glu-Val and γ-Glu-Abu (0.0050 g/dL) was uncertain: 6 No. of panelists
  No. of Panelists whose evaluation was such that γ-Glu-Val was stronger than γ-Glu-Abu (0.0050 g/dL): 25 No. of panelists
  No. of Panelists whose evaluation was such that γ-Glu-Val was weaker than γ-Glu-Abu (0.0050 g/dL): 5 No. of panelists
Panelists [2]; γ-Glu-Val 0.0225 g/dL
  No. of Panelists whose evaluation was such that the difference between γ-Glu-Val and γ-Glu-Abu (0.0050 g/dL) was uncertain: 7 No. of panelists
  No. of Panelists whose evaluation was such that γ-Glu-Val was stronger than γ-Glu-Abu (0.0050 g/dL): 28 No. of panelists
  No. of Panelists whose evaluation was such that γ-Glu-Val was weaker than γ-Glu-Abu (0.0050 g/dL): 1 No. of panelists
Panelists [2]; γ-Glu-Val 0.0337 g/dL
  No. of Panelists whose evaluation was such that the difference between γ-Glu-Val and γ-Glu-Abu (0.0050 g/dL) was uncertain: 0 No. of panelists
  No. of Panelists whose evaluation was such that γ-Glu-Val was stronger than γ-Glu-Abu (0.0050 g/dL): 36 No. of panelists
  No. of Panelists whose evaluation was such that γ-Glu-Val was weaker than γ-Glu-Abu (0.0050 g/dL): 0 No. of panelists
Panelists [2]; γ-Glu-Val vs 50 ppm γ-Glu-Abu, average of the 36 lower thresholds
  Confidence Region (average), Lower Threshold: 94.5 ppm
Panelists [2]; γ-Glu-Val vs 50 ppm γ-Glu-Abu, average of the 36 upper thresholds
  Confidence Region (average), Upper Threshold: 149.3 ppm
Panelists [2]; [6]
  Lower Threshold at which each panelist determined that the concentrations were the same: 55.5 ppm and 125.0 ppm and 37.0 ppm and 83.5 ppm and 187.5 ppm
  Upper Threshold at which each panelist determined that the concentrations were the same: 55.5 ppm and 125.0 ppm and 187.5 ppm and 37.0 ppm and 281.0 ppm and 83.5 ppm
Panelists [2]; [7]
  Lower Threshold at which each panelist determined that the concentrations were the same: 125.0 ppm (3×) and 83.5 ppm (5×) and 187.5 ppm (3×) and 55.5 ppm (5×) and 56.0 ppm and 281.0 ppm
  Upper Threshold at which each panelist determined that the concentrations were the same: 125.0 ppm (7×) and 281.0 ppm (5×) and 187.5 ppm (2×) and 83.5 ppm (4×)

## [γGlu]-Val-Gly
Panelists [3]; [8]
  Strength of Salty Taste Impartment, Initial Taste: 0.8 points
  Strength of Salty Taste Impartment, Middle/After Taste: 1.8 points
Panelists [3]; comparison of γ-Glu-Val-Gly and γ-Glu-Abu
  Salty taste enhancement ability (in words): higher taste-imparting strength than γ-Glu-Abu; also recorded: remarkably disturbs the balance of the salty taste
